Measured values taken from PMC6588608 (Communications Biology, 2019).
Residue numbers refer to the chain shown, from its start. Read-outs that look alike come from different tables or passages of the source.

Tests used:
[1] = target: T1, ETA receptor (wild type) (Homo sapiens, UniProt P25101); assay: TGFα shedding assay, antagonist activity against ET-1 (0.5 nM)-induced AP-TGFα release
T1 sequence (P25101 21-427): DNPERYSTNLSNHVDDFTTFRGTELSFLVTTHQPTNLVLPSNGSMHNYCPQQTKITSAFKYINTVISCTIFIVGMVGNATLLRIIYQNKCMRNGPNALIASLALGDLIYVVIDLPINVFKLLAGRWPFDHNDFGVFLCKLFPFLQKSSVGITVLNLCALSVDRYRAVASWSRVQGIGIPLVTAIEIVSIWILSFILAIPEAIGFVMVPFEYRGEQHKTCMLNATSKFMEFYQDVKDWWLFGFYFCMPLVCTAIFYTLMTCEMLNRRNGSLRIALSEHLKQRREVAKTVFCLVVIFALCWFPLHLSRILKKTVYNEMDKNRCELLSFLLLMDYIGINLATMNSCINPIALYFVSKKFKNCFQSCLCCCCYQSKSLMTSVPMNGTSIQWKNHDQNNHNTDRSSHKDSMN
Procedure: (§1) The TGFα shedding assay, which measures the activation of Gq/11 and G12/13 signaling[24], was performed as described previously[22]. Briefly, a plasmid encoding an ETB construct with an internal FLAG epitope tag or an ETA construct was transfected, together with a plasmid encoding alkaline phosphatase (AP)-tagged TGFα (AP-TGFα), into HEK293A cells by using a polyethylenimine (PEI) transfection reagent (1 µg ETR plasmid, 2.5 µg AP-TGFα plasmid, and 25 µl of 1 mg per ml PEI solution per 10-cm culture dish). […] The AP-TGFα release signals were fitted to a four-parameter sigmoidal concentration-response curve, using the Prism 7 software (GraphPad Prism), and the pEC50 (equal to −log10 EC50) and Emax values were obtained.

[2] = target: T2, constitutively active ETA receptor (ETA-L3.43Q) (Homo sapiens, UniProt P25101, L176Q); assay: as above
T2 sequence (P25101 21-427 L176Q): T1 sequence (P25101 21-427) with L156Q
Procedure: as §1
(§2) To measure the constitutive activity in a plasmid volume-dependent manner, HEK293 cells were seeded in a 96-well plate at a concentration of 4 × 10^5 cells per ml in Opti-MEM I Reduced Serum Media (Thermo Fisher Scientific), in a volume of 80 μl per well. […] After adding the AP reaction solution, the absorbances of the cells and the CM plates were measured at 20 min intervals. The AP-TGFα release signals were calculated as described above, and the signal in the mock-transfected conditions was set at the baseline.

[3] = target: T3, ETA (WT) (Homo sapiens, UniProt P25101); assay: TGFα shedding assay, inverse agonist activity (4 h incubation)
T3 sequence (P25101 21-427): T1 sequence (P25101 21-427)
Procedure: as §1

[4] = target: T4, constitutively active ETB receptor (ETB-L3.43Q) (Homo sapiens, UniProt P24530, L192Q); assay: TGFα shedding assay, antagonist activity against ET-1 (0.5 nM)-induced AP-TGFα release
T4 sequence (P24530 27-442 L192Q): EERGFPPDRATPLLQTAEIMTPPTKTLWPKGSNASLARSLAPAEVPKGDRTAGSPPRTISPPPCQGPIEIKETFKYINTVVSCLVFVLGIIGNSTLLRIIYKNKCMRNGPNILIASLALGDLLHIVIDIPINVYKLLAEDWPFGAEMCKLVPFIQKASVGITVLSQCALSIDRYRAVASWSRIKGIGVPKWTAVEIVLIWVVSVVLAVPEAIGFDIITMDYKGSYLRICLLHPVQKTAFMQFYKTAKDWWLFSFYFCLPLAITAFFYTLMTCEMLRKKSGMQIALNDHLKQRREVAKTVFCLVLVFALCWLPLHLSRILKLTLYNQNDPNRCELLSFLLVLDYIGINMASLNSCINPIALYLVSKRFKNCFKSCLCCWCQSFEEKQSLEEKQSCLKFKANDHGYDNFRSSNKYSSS
Procedure: as §1, §2

[5] = target: T5, ETB-WT (Homo sapiens, UniProt P24530); assay: TGFα shedding assay, inverse agonist activity (4 h incubation); conditions: for Emax: read-out: Emax ± SEM
T5 sequence (P24530 27-442): T4 sequence (P24530 27-442 L192Q) with Q166L
Procedure: as §1

[6] = target: T6, ETB-L192^3.43Q (constitutively active ETB receptor) (Homo sapiens, UniProt P24530, L192Q); assay: as above; conditions: for Emax: read-out: Emax ± SEM
T6 sequence (P24530 27-442 L192Q): T4 sequence (P24530 27-442 L192Q)
Procedure: as §1, §2

[7] = target: T7, ETB receptor (wild type) (Homo sapiens, UniProt P24530); assay: TGFα shedding assay, antagonist activity against ET-1 (0.5 nM)-induced AP-TGFα release; format: cell-based; conditions: Supplementary Fig. 5d, ETB (WT)
T7 construct: expressed in transfected cells; host or cells: HEK293A
T7 sequence (P24530 27-442): T4 sequence (P24530 27-442 L192Q) with Q166L
Procedure: The TGFα shedding assay, which measures the activation of Gq/11 and G12/13 signaling, was performed as described previously. Briefly, a plasmid encoding an ETB construct with an internal FLAG epitope tag or an ETA construct was transfected, together with a plasmid encoding alkaline phosphatase (AP)-tagged TGFα (AP-TGFα), into HEK293A cells by using a polyethylenimine (PEI) transfection reagent (1 µg ETR plasmid, 2.5 µg AP-TGFα plasmid, and 25 µl of 1 mg per ml PEI solution per 10-cm culture dish). […] The AP-TGFα release signals were fitted to a four-parameter sigmoidal concentration-response curve, using the Prism 7 software (GraphPad Prism), and the pEC50 (equal to −log10 EC50) and Emax values were obtained.

[8] = target: T8, ETA (L3.43Q) (constitutively active ETA receptor) (Homo sapiens, UniProt P25101, L176Q); assay: TGFα shedding assay, inverse agonist activity (4 h incubation); conditions: for change of the basal activity: ETA-L^3.43Q, Supplementary Fig. 6b, c
T8 sequence (P25101 21-427 L176Q): T1 sequence (P25101 21-427) with L156Q
Procedure: as §1, §2

[9] = test system: cold injury-mediated brain edema; design: method as in PMID 25000290, PMID 26174228; conditions: animal model; intracerebroventricular administration; cited from earlier work
[10] = target: ETB receptor; design: method as in PMID 8587424; conditions: read-out: IC50 as ETB-selective antagonist; cited from earlier work

SMILES: CCCC[C@@H](NC(=O)[C@@H](Cc1cn(C(=O)OC)c2ccccc12)NC(=O)[C@H](CC(C)(C)C)NC(=O)N1[C@H](C)CCC[C@@H]1C)C(=O)O [BQ-788]
- IC50 ([1]; IC50, Supplementary Fig. 5d, ETA (WT)): > 10000 nM
- IC50 [2]: > 10000 nM
- Emax [3]: < 2%
- IC50 ([4]; IC50, Supplementary Fig. 5d): 75 nM
- IC50 ([4]; pIC50 ± SEM, Supplementary Fig. 5d): 74.1 nM
- Emax [5]: < 2%
- EC50 ([6]; EC50, Table 3, ETB-L192^3.43Q, 4 h incubation, reduction of basal activity for inverse agonists): 0.96 nM
- EC50 ([6]; pEC50 (mean ± SEM), Table 3, ETB-L192^3.43Q, 4 h incubation): 0.955 nM
- Emax [6]: -18.5 ± 0.7%
- IC50 ([7]; read-out: IC50): 110 nM
- IC50 ([7]; read-out: pIC50 ± SEM (converted)): 107 nM
- Emax [8]: < 2%

SMILES: COc1ccccc1Oc1c(NS(=O)(=O)c2ccc(C(C)(C)C)cc2)nc(-c2ncccn2)nc1OCCO [Bosentan]
- Emax [3]: < 2%
- Emax [8]: < 2%
- change of the basal activity [8]: did not change the basal activity

SMILES: Cc1cc(C)cc(C(=O)N(C)C(Cc2ccc(-c3ccccc3)cc2)C(=O)NC(Cc2c[nH]c3ccccc23)C(=O)O)c1 (centres unmarked) [IRL2500]
- IC50 ([1]; IC50 for the ETA receptor, text on Fig. 1a): > 3000 nM
- IC50 ([1]; pIC50 ± SEM ETA, Fig. 1a, HEK293 cells): < 3160 nM
- IC50 [2]: > 3000 nM
- Emax [3]: < 2%
- effect on cold injury-mediated brain edema and disruption of the blood–brain barrier [9]: attenuated the cold injury-mediated brain edema and disruption of the blood–brain barrier
- Emax [5]: < 2%
- change of the receptor activation level (ligand-induced AP-TGFα release) ([5]; wild-type ETB, 4 h-incubation, Fig. 4d): did not change the receptor activation level
- Emax [6]: -27 ± 1.1%
- IC50 [10]: 1.2 nM
- Emax [8]: < 2%
- change of the basal activity [8]: did not change the basal activity

SMILES: COc1ccccc1Oc1c(NS(=O)(=O)c2ccc(C(C)(C)C)cc2)nc(-c2ncccn2)nc1OCCC(=O)Nc1c(C)cccc1C [K-8794]
- IC50 ([1]; Supplementary Fig. 5d, ETA (WT)): > 3000 nM
- IC50 ([2]; Supplementary Fig. 5d, ETA (L3.43Q), ET-1 0.5 nM): > 3000 nM
- Emax ([3]; Supplementary Fig. 6c, ETA (WT), AP-TGFα release, baseline = no compound, 4 h): < 2%
- IC50 ([4]; Supplementary Fig. 5d): 4.2 nM
- pIC50 ± SEM ([4]; Supplementary Fig. 5d): 8.37 ± 0.06
- Emax ± SEM ([5]; Table 3, ETB-WT, AP-TGFα release, spontaneous release set at baseline, 4 h): <2%
- pEC50 (mean ± SEM) ([6]; Table 3, ETB-L192^3.43Q, 4 h incubation): 9.21 ± 0.04
- EC50 ([6]; Table 3, ETB-L192^3.43Q, 4 h incubation, reduction of basal activity for inverse agonists): 0.61 nM
- Emax ± SEM ([6]; Table 3, ETB-L192^3.43Q, AP-TGFα release, spontaneous release set at baseline, 4 h): −31.5 ± 2.0%
- pIC50 ± SEM [7]: 8.06 ± 0.04
- IC50 ([7]; read-out: IC50): 8.7 nM
- Emax ([8]; Supplementary Fig. 6c, ETA (L3.43Q), AP-TGFα release, baseline = no compound, 4 h): < 2%
